Measured values from PubChem BioAssay (NCI).
Several values for one entry are separate records, joined by “and”; a condition that tells them apart may be missing. Equal values may be shown once.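 Tested at 5 concentrations; 48 h exposure; 96-well plates; endpoints linearly interpolated, else capped at highest concentration. GI50 is the concentration that inhibits growth by half. The concentration for full growth arrest is given as TGI.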

Columns and labels:
Assay in all cases: growth of human tumour cells (NCI), 48 h
EKVX NSCLC = system: EKVX NSCLC
HCC-2998 colon = system: HCC-2998 colon
HOP-62 NSCLC = system: HOP-62 NSCLC
HOP-92 NSCLC = system: HOP-92 NSCLC
NCI/ADR-RES ovarian = system: NCI/ADR-RES ovarian
OVCAR-4 ovarian = system: OVCAR-4 ovarian
RPMI-8226 leukemia = system: RPMI-8226 leukemia
UO-31 renal = system: UO-31 renal

| SMILES | GI50 (EKVX NSCLC) | TGI (EKVX NSCLC) | GI50 (HCC-2998 colon) | TGI (HCC-2998 colon) | GI50 (HOP-62 NSCLC) | TGI (HOP-62 NSCLC) | GI50 (HOP-92 NSCLC) | TGI (HOP-92 NSCLC) | GI50 (NCI/ADR-RES ovarian) | TGI (NCI/ADR-RES ovarian) | GI50 (OVCAR-4 ovarian) | TGI (OVCAR-4 ovarian) | GI50 (RPMI-8226 leukemia) | TGI (RPMI-8226 leukemia) | GI50 (UO-31 renal) | TGI (UO-31 renal) |
| --- | --- | --- | --- | --- | --- | --- | --- | --- | --- | --- | --- | --- | --- | --- | --- | --- |
| Cn1ccnc1C(=O)/C=C/c1ccc(C(=O)Nc2ccc(S(F)(F)(F)(F)F)cc2)cc1 | 953 nM | > 14300 nM | 2930 nM | > 14300 nM | 4050 nM | > 14300 nM | 3030 nM | > 14300 nM | 1520 nM | > 14300 nM | 704 nM | > 14300 nM | 380 nM | 2680 nM | 2220 nM | > 14300 nM |
| S=C(N/N=C(/c1ccccc1)c1ccccn1)N1CCCCC1 | 1210 nM | 2450 nM and 558 nM |  | 2100 nM | < 1 nM | 2330 nM and 2780 nM | 1160 nM | 2270 nM and 2810 nM | < 1 nM | 1870 nM and 986 nM | 119 nM | 3120 nM and 1430 nM | < 1 nM |  | 468 nM | 2010 nM and 1540 nM |
| CN(CCCCCl)P(=O)(OCc1ccc([N+](=O)[O-])o1)OCC1OC(n2ccc(N)nc2=O)C(F)(F)C1O (centres undefined) | 2480 nM | > 75400 nM | 3150 nM | 49100 nM | 494 nM | > 100000 nM | 155 nM | 830 nM | 419 nM | > 100000 nM |  |  | 1870 nM | > 100000 nM |  | > 100000 nM |
| O=C1C2C(C(=O)[N]1[Hg][c]1cccs1)C1(Cl)C(Cl)=C(Cl)C2(Cl)C1(Cl)Cl (centres undefined) | 1830 nM | 4200 nM | 1970 nM | 3590 nM | 2520 nM | 6840 nM | 1580 nM | 3030 nM | 2070 nM | 4800 nM | 1240 nM | 2510 nM | 1410 nM | 6380 nM | 1740 nM | 3210 nM |
| CC/C(=C(/c1ccc(OCCN(C)C)cc1)c1ccc(OC(=O)CCC(=O)c2c(C)[nH]c(/C=C3\N=C(c4ccc[nH]4)C=C3OC)c2C)cc1)c1ccccc1 |  |  | 3720 nM | 13400 nM | 1490 nM | 4940 nM | 749 nM | 4130 nM | 3620 nM | 15900 nM | 1490 nM | 14800 nM | 1570 nM | 5580 nM | 1710 nM | 5050 nM |
| CC(=O)CCc1ccc(OC2OC(COC(=O)c3cc(O)c(O)c(O)c3)C(O)C(O)C2OC(=O)/C=C/c2ccccc2)cc1 (centres undefined) | 40300 nM | 72000 nM | 15300 nM | 30200 nM | 17200 nM | 33800 nM | 30400 nM | > 100000 nM | > 100000 nM | > 100000 nM | 23800 nM | 89700 nM | 23700 nM | 85300 nM | 30200 nM | > 100000 nM |
